Measured values: patent EP3696281A1, “ARGINASE AS BIOMARKER AND DRUG TARGET FOR PCOS” (Johann Wolfgang Goethe-Universität Frankfurt am Main, priority 2019, dated 2020)

How the values were obtained:
arginase = assay: Arginase activity in platelets incubated with arginase inhibitor, then lysed (MAK112 kit); type: cell-based, human; details: 30 minutes, P<0.05
Excerpt: Levels of ornithine (A), arginine (B), and the ratio of ornithine to arginine (C) in plasma from healthy donors or from PCOS patients, n= 22 (Student's t test). (D) Arginase activity in plasma from healthy donors or from PCOS patients, n=16 (Student's t test). (E) Levels of arginase-i in plasma from healthy donors or from PCOS patients, n=16 (Student's t test). (F) Levels of arginase-i in plasma from healthy donors or from PCOS patients in the presence or in the absence of microparticles, n=16 (ANOVA and Newman-Keuls post-test). (G) Levels of platelet-derived microparticles (PMPs) in plasma from healthy donors or from PCOS patients, n=17 (Student's t test). (H) Levels of arginase-i measured by flow cytometry in PMPs from healthy donors and from PCOS patients, n=17. […]
Given that platelets are the main source of plasma arginase in PCOS patients, the effect of arginase inhibitor on platelet arginase activity and function was assessed. […]
Arginase activity was determined in plasma or in platelets using commercially available kits (MAK112, Sigma, Steinheim, Germany), according to manufacturer's instructions.

washed human platelets = assay: Aggregation of washed human platelets elicited by thrombin or U46619 (aggregometer); type: cell-based; details: 5 minutes; for effect of pre-treatment with arginase inhibitor on arginine-mediated inhibition of platelet aggregation: pre-incubation with inhibitor (Nor-NOHA 100 µmol/L, 30 minutes), then arginine 1 mmol/L, thrombin or U46619; for thrombin or thromboxane A2 analogue-induced aggregation of platelets: arginine 1 mmol/L, alone
Excerpt: Levels of ornithine (A), arginine (B), and the ratio of ornithine to arginine (C) in plasma from healthy donors or from PCOS patients, n= 22 (Student's t test). (D) Arginase activity in plasma from healthy donors or from PCOS patients, n=16 (Student's t test). (E) Levels of arginase-i in plasma from healthy donors or from PCOS patients, n=16 (Student's t test). (F) Levels of arginase-i in plasma from healthy donors or from PCOS patients in the presence or in the absence of microparticles, n=16 (ANOVA and Newman-Keuls post-test). (G) Levels of platelet-derived microparticles (PMPs) in plasma from healthy donors or from PCOS patients, n=17 (Student's t test). (H) Levels of arginase-i measured by flow cytometry in PMPs from healthy donors and from PCOS patients, n=17.
Human platelets were obtained by centrifugation (900g, 7 minutes) of platelet-rich plasma, as described. […] The resulting platelet-poor plasma was collected and frozen at -80°C for further evaluation.
Platelet aggregation. Aggregation of washed human platelets (4x10^8platelets/mL) was measured using an 8-channel aggregometer (PAP8, Mölab, Germany).

CCC[C@H](N)C(=O)O [L-norvaline]
arginase activity (arginase; platelets incubated with L-norvaline 10 mmol/L): significantly inhibited arginase activity | effect of pre-treatment with arginase inhibitor on arginine-mediated inhibition of platelet aggregation (washed human platelets; platelets from PCOS patients): significantly revealed the inhibitory effects of arginine | effect of pre-treatment with arginase inhibitor on arginine-mediated inhibition of platelet aggregation (washed human platelets; platelets from healthy donors): did not have additional effect on arginine-mediated platelet inhibition

N=C(NO)NCC[C@H](N)C(=O)O [NorNOHA, Nω-hydroxy-nor-L-arginine]
arginase activity (arginase; platelets incubated with nor-NOHA 100 µmol/L): significantly inhibited arginase activity | effect of pre-treatment with arginase inhibitor on arginine-mediated inhibition of platelet aggregation (washed human platelets; platelets from PCOS patients): significantly revealed the inhibitory effects of arginine | effect of pre-treatment with arginase inhibitor on arginine-mediated inhibition of platelet aggregation (washed human platelets; platelets from healthy donors): did not have additional effect on arginine-mediated platelet inhibition

N=C(N)NCCC[C@H](N)C(=O)O [arginine]
thrombin or thromboxane A2 analogue-induced aggregation of platelets (washed human platelets; platelets from PCOS patients): did not affect the aggregation | thrombin or thromboxane A2 analogue-induced aggregation of platelets (washed human platelets; platelets from healthy donors): inhibited thrombin or thromboxane A2 analogue-induced aggregation
